Experiments:
Assay type in all cases: cell-based
Botrytis cinerea [1] = test: Microscopic spore germination on the Example 3 plates; settings: microscopically examined
Method: Resistant and sensitive fungi were initially obtained from crops of cultivated fruit in the field. The percent germination reported below was calculated by microscopic evaluation. An average of four fields of view per plate was examined with each field of view having a total of about 100 to 300 spores. The total number of spores in each field of view was counted then either the number germinated or not germinated, whichever was easiest to count, was determined. These numbers were then combined appropriately and the percent germination calculated. Unless otherwise noted, resistant isolates are given a numerical designation and sensitive isolates a letter designation.
(§1) Diagnostic media was prepared substantially as described above in Preparation Example 1 except that bromothymol blue rather than bromcresol purple and only 4 g of dextrose was used per liter and the pH adjusted to 7.5, 8.0 and 8.5. These media were then inoculated with spores of either Botrytis cinerea or Rhizopus nigricans isolates substantially as previously described. The inoculated media was then incubated for 18 hours at room temperature and the results recorded below in Table III.
Strong color reactions were only observed from the resistant Botrytis cinerea isolates. Only slight reactions, at most, occurred from the Rhizopus nigricans inoculations. Example 4

Botrytis cinerea [2] = test: Color change diameter on bromothymol blue diagnostic media at pH 7.5-8.5 (Example 3); design: key: T = only slight color change
Method: as §1

Rhizopus nigricans [3] = test: as above; design: key: T = only slight color change
Method: as §1

Botrytis cinerea [4] = test: Color change response at varied vinclozolin concentration (Example 4); design: key: T = only slight color change; settings: pH 5.5, about 48 hours
Method: Diagnostic media was prepared substantially as described above in Preparation Example 1 and the pH adjusted to 5.5 except that the vinclozolin concentrations in the media varied from about 10 ppm to 1000 ppm. The media was inoculated with 1 vinclozolin sensitive (BC-A) and 1 vinclozolin resistant isolate (BC-4) of Botrytis cinerea) and incubated at room temperature for about 48 hours.

Botrytis cinerea [5] = test: Color change diameter on bromcresol purple media containing vinclozolin (Example 2); design: key to COLOR CHANGE DIAMETER: T = only slight color change; settings: for COLOR CHANGE DIAMETER: 20 hours
Method: (§2) To a stock solution of 0.4 g bromcresol purple in 260 mls of 0.01N sodium hydroxide, either 40 g of potato dextrose agar (PDA) or 40 g dextrose and 20 g agar (WA-dextrose medium) were added and the total volume brought up to 1 liter using distilled water. After autoclaving the media, a solution of vinclozolin in 5 mls of ethanol was added to afford 5 or 10 ppm concentrations and dispensed into petri plates (10 ml/plate). Sporulating cultures of Botrytis cinerea and Rhizopus nigricans (also known as Rhizopus stolonifer) were grown for two weeks on potato dextrose agar. Spores were transferred to the diagnostic media using sterile cotton tipped swabs and incubated for 20 hours at room temperature. The media was macroscopically examined and the diameter of color change detectable in the media was then measured.

Rhizopus nigricans [6] = test: as above; design: key to COLOR CHANGE DIAMETER: T = only slight color change; settings: for COLOR CHANGE DIAMETER: 20 hours
Method: as §2

SMILES: C=CC1(C)OC(=O)N(c2cc(Cl)cc(Cl)c2)C1=O (stereo not drawn) [vinclozolin]
- spore germination (Botrytis cinerea [1]; all of the resistant isolates): greater than 90%
- spore germination (Botrytis cinerea [1]; sensitive isolate spores): no germination
- DIAMETER OF COLOR CHANGE (Botrytis cinerea [2]; isolate BC B sens., pH 7.5, 18 hours): 0 mm
- DIAMETER OF COLOR CHANGE (Botrytis cinerea [2]; isolate BC B sens., pH 8.0, 18 hours): 0 mm
- DIAMETER OF COLOR CHANGE (Botrytis cinerea [2]; isolate BC B sens., pH 8.5, 18 hours): 0 mm
- DIAMETER OF COLOR CHANGE (Botrytis cinerea [2]; isolate BC-1 res., pH 7.5, 18 hours): 12 mm
- DIAMETER OF COLOR CHANGE (Botrytis cinerea [2]; isolate BC-1 res., pH 8.0, 18 hours): 6 mm
- DIAMETER OF COLOR CHANGE (Botrytis cinerea [2]; isolate BC-1 res., pH 8.5, 18 hours): 0 mm
- DIAMETER OF COLOR CHANGE (Botrytis cinerea [2]; isolate BC-2 res., pH 7.5, 18 hours): 12 mm
- DIAMETER OF COLOR CHANGE (Botrytis cinerea [2]; isolate BC-2 res., pH 8.0, 18 hours): 6 mm
- DIAMETER OF COLOR CHANGE (Botrytis cinerea [2]; isolate BC-2 res., pH 8.5, 18 hours): T
- DIAMETER OF COLOR CHANGE (Botrytis cinerea [2]; isolate BC-3 res., pH 7.5, 18 hours): 18 mm
- DIAMETER OF COLOR CHANGE (Botrytis cinerea [2]; isolate BC-3 res., pH 8.0, 18 hours): 12 mm
- DIAMETER OF COLOR CHANGE (Botrytis cinerea [2]; isolate BC-3 res., pH 8.5, 18 hours): 12 mm
- DIAMETER OF COLOR CHANGE (Botrytis cinerea [2]; isolate BC-4 res., pH 7.5, 18 hours): 12 mm
- DIAMETER OF COLOR CHANGE (Botrytis cinerea [2]; isolate BC-4 res., pH 8.0, 18 hours): 12 mm
- DIAMETER OF COLOR CHANGE (Botrytis cinerea [2]; isolate BC-4 res., pH 8.5, 18 hours): 12 mm
- DIAMETER OF COLOR CHANGE (Botrytis cinerea [2]; isolate BC-5 res., pH 7.5, 18 hours): 6 mm
- DIAMETER OF COLOR CHANGE (Botrytis cinerea [2]; isolate BC-5 res., pH 8.0, 18 hours): 3 mm
- DIAMETER OF COLOR CHANGE (Botrytis cinerea [2]; isolate BC-5 res., pH 8.5, 18 hours): 6 mm
- DIAMETER OF COLOR CHANGE (Botrytis cinerea [2]; isolate BC-6 resistant, pH 7.5, 18 hours): 6 mm
- DIAMETER OF COLOR CHANGE (Botrytis cinerea [2]; isolate BC-6 resistant, pH 8.0, 18 hours): 3 mm
- DIAMETER OF COLOR CHANGE (Botrytis cinerea [2]; isolate BC-6 resistant, pH 8.5, 18 hours): 6 mm
- DIAMETER OF COLOR CHANGE (Botrytis cinerea [2]; isolate BC-A sensitive, pH 7.5, 18 hours): 0 mm
- DIAMETER OF COLOR CHANGE (Botrytis cinerea [2]; isolate BC-A sensitive, pH 8.0, 18 hours): 0 mm
- DIAMETER OF COLOR CHANGE (Botrytis cinerea [2]; isolate BC-A sensitive, pH 8.5, 18 hours): 0 mm
- DIAMETER OF COLOR CHANGE (Botrytis cinerea [2]; isolate BC-C sens., pH 7.5, 18 hours): T
- DIAMETER OF COLOR CHANGE (Botrytis cinerea [2]; isolate BC-C sens., pH 8.0, 18 hours): 0 mm
- DIAMETER OF COLOR CHANGE (Botrytis cinerea [2]; isolate BC-C sens., pH 8.5, 18 hours): 0 mm
- DIAMETER OF COLOR CHANGE (Botrytis cinerea [2]; isolate BC-D sens., pH 7.5, 18 hours): T
- DIAMETER OF COLOR CHANGE (Botrytis cinerea [2]; isolate BC-D sens., pH 8.0, 18 hours): 0 mm
- DIAMETER OF COLOR CHANGE (Botrytis cinerea [2]; isolate BC-D sens., pH 8.5, 18 hours): 0 mm
- DIAMETER OF COLOR CHANGE (Rhizopus nigricans [3]; isolate RP-3, pH 7.5, 18 hours): T
- DIAMETER OF COLOR CHANGE (Rhizopus nigricans [3]; isolate RP-3, pH 8.0, 18 hours): T
- DIAMETER OF COLOR CHANGE (Rhizopus nigricans [3]; isolate RP-3, pH 8.5, 18 hours): T
- DIAMETER OF COLOR CHANGE (Rhizopus nigricans [3]; isolate RP-4, pH 7.5, 18 hours): T
- DIAMETER OF COLOR CHANGE (Rhizopus nigricans [3]; isolate RP-4, pH 8.0, 18 hours): T
- DIAMETER OF COLOR CHANGE (Rhizopus nigricans [3]; isolate RP-4, pH 8.5, 18 hours): T
- Color Change Response (Botrytis cinerea [4]; isolate BC-4 (vinclozolin resistant), vinclozolin 500 ppm): T
- Color Change Response (Botrytis cinerea [4]; isolate BC-4 (vinclozolin resistant), vinclozolin 1000 ppm): T
- Color Change Response (Botrytis cinerea [4]; isolate BC-A (vinclozolin sensitive), vinclozolin 1000 ppm): T
- COLOR CHANGE DIAMETER (Botrytis cinerea [5]; isolate BC-1 res., PDA media, vinclozolin 5.0ppm): 5 mm
- COLOR CHANGE DIAMETER (Botrytis cinerea [5]; isolate BC-1 res., PDA media, vinclozolin 10.0ppm): 0 mm
- COLOR CHANGE DIAMETER (Botrytis cinerea [5]; isolate BC-1 res., WA-dextrose media, vinclozolin 5.0ppm): T^a
- COLOR CHANGE DIAMETER (Botrytis cinerea [5]; isolate BC-1 res., WA-dextrose media, vinclozolin 10.0ppm): 5 mm
- COLOR CHANGE DIAMETER (Botrytis cinerea [5]; isolate BC-2 res., PDA media, vinclozolin 5.0ppm): 10 mm
- COLOR CHANGE DIAMETER (Botrytis cinerea [5]; isolate BC-2 res., PDA media, vinclozolin 10.0ppm): 0 mm
- COLOR CHANGE DIAMETER (Botrytis cinerea [5]; isolate BC-2 res., WA-dextrose media, vinclozolin 5.0ppm): 10 mm
- COLOR CHANGE DIAMETER (Botrytis cinerea [5]; isolate BC-2 res., WA-dextrose media, vinclozolin 10.0ppm): 5 mm
- COLOR CHANGE DIAMETER (Botrytis cinerea [5]; isolate BC-3 resistant, PDA media, vinclozolin 5.0ppm): 10 mm
- COLOR CHANGE DIAMETER (Botrytis cinerea [5]; isolate BC-3 resistant, PDA media, vinclozolin 10.0ppm): 0 mm
- COLOR CHANGE DIAMETER (Botrytis cinerea [5]; isolate BC-3 resistant, WA-dextrose media, vinclozolin 5.0ppm): 10 mm
- COLOR CHANGE DIAMETER (Botrytis cinerea [5]; isolate BC-3 resistant, WA-dextrose media, vinclozolin 10.0ppm): 10 mm
- COLOR CHANGE DIAMETER (Botrytis cinerea [5]; isolate BC-A sensitive, PDA media, vinclozolin 5.0ppm): 0 mm
- COLOR CHANGE DIAMETER (Botrytis cinerea [5]; isolate BC-A sensitive, PDA media, vinclozolin 10.0ppm): 0 mm
- COLOR CHANGE DIAMETER (Botrytis cinerea [5]; isolate BC-A sensitive, WA-dextrose media, vinclozolin 5.0ppm): 0 mm
- COLOR CHANGE DIAMETER (Botrytis cinerea [5]; isolate BC-A sensitive, WA-dextrose media, vinclozolin 10.0ppm): 0 mm
- COLOR CHANGE DIAMETER (Botrytis cinerea [5]; isolate BC-B sens., PDA media, vinclozolin 5.0ppm): 0 mm
- COLOR CHANGE DIAMETER (Botrytis cinerea [5]; isolate BC-B sens., PDA media, vinclozolin 10.0ppm): 0 mm
- COLOR CHANGE DIAMETER (Botrytis cinerea [5]; isolate BC-B sens., WA-dextrose media, vinclozolin 5.0ppm): 0 mm
- COLOR CHANGE DIAMETER (Botrytis cinerea [5]; isolate BC-B sens., WA-dextrose media, vinclozolin 10.0ppm): 0 mm
- COLOR CHANGE DIAMETER (Botrytis cinerea [5]; isolate BC-D sens., PDA media, vinclozolin 5.0ppm): 0 mm
- COLOR CHANGE DIAMETER (Botrytis cinerea [5]; isolate BC-D sens., PDA media, vinclozolin 10.0ppm): 0 mm
- COLOR CHANGE DIAMETER (Botrytis cinerea [5]; isolate BC-D sens., WA-dextrose media, vinclozolin 5.0ppm): 0 mm
- COLOR CHANGE DIAMETER (Botrytis cinerea [5]; isolate BC-D sens., WA-dextrose media, vinclozolin 10.0ppm): 0 mm
- color change (Botrytis cinerea [5]; resistant isolates, PDA media containing 10 ppm of vinclozolin, after 4 days): no measurable color change
- color reaction (Rhizopus nigricans [6]; Rhizopus nigricans isolates, PDA media containing 5 ppm of vinclozolin, after 4 days): allowed 1 of the Rhizopus nigricans contaminated isolates to react
- COLOR CHANGE DIAMETER (Rhizopus nigricans [6]; isolate RP-1, PDA media, vinclozolin 5.0ppm): T
- COLOR CHANGE DIAMETER (Rhizopus nigricans [6]; isolate RP-1, PDA media, vinclozolin 10.0ppm): 0 mm
- COLOR CHANGE DIAMETER (Rhizopus nigricans [6]; isolate RP-1, WA-dextrose media, vinclozolin 5.0ppm): 0 mm
- COLOR CHANGE DIAMETER (Rhizopus nigricans [6]; isolate RP-1, WA-dextrose media, vinclozolin 10.0ppm): 0 mm
- COLOR CHANGE DIAMETER (Rhizopus nigricans [6]; isolate RP-2, PDA media, vinclozolin 5.0ppm): T
- COLOR CHANGE DIAMETER (Rhizopus nigricans [6]; isolate RP-2, PDA media, vinclozolin 10.0ppm): 0 mm
- COLOR CHANGE DIAMETER (Rhizopus nigricans [6]; isolate RP-2, WA-dextrose media, vinclozolin 5.0ppm): 0 mm
- COLOR CHANGE DIAMETER (Rhizopus nigricans [6]; isolate RP-2, WA-dextrose media, vinclozolin 10.0ppm): 0 mm
